Where two headings read alike, the source gives them in different places.
Test system: Phytophthora infestans
Format: in vivo
Settings: individual active compound, protective, assessed 6 days after infection

Row | SMILES | Efficacy in % of the untreated control (4 ppm in the spray liquor) | Efficacy in % of the untreated control (16 ppm in the spray liquor) | Efficacy in % of the untreated control (63 ppm in the spray liquor)
1 | C[C@H](Nc1c(-c2c(F)cc(F)cc2F)c(Cl)nc2ncnn12)C(F)(F)F [B] | 0% | 0% | 10%
2 | CC1CCN(c2c(-c3c(F)cc(F)cc3F)c(Cl)nc3ncnn23)CC1 [compound I, 5-chloro-7-(4-methylpiperidin-1-yl)-6-(2,4,6-trifluorophenyl)-[1,2,4]triazolo[1,5-a]pyrimidine] | 0% | 10% | 10%
3 | CC1CCN(c2c(-c3c(F)cccc3Cl)c(Cl)nc3ncnn23)CC1 [A] | 0% | 0% | 0%
4 | Fc1ccc([C@]2(Cn3cncn3)O[C@H]2c2ccccc2Cl)cc1 (racemic) [compound II, (2RS,3SR)-1-[3-(2-chlorophenyl)-2,3-epoxy-2-(4-fluorophenyl)-propyl]-1H-1,2,4-triazole] | – | 10% | –
